Test results taken from US20260166046A1, “Inhibitors of methionine aminopeptidase-2 and methods of preparation and uses thereof” (Primetime Life Sciences LLC, priority 2022, published 2026).

Columns and labels:
[1] = in vivo; cited from earlier work
G. lamblia WB = experiment: Trophozoite viability IC50 determination, Giardia assay (ATPLite); type: cell-based; details: Giardia duodenalis, 72 h, read-out: Cell viability values Mean IC50 (nM) G. lamblia WB
Procedure: (§1) Giardia cultures: Trophozoites of G. lamblia isolates WB and GS were grown anaerobically in borosilicate glass screw-cap culture tubes (Fisher Scientific) at pH 7.0 in modified TYI-S-33 medium. The medium was supplemented with 10% heat-inactivated bovine serum (Sigma-Aldrich) and 0.05% bovine bile (Sigma-Aldrich). To attain low-oxygen-tension conditions, the tubes were filled to 85 to 90% of their total volume capacity and incubated without shaking at 37° C. Subcultures (2×10^5 trophozoites per tube) were made three times a week. Detachment of trophozoites for inoculation was achieved by chilling the cultures on ice for 20 min. Culturing and detachment of Metronidazole-resistant G. lamblia Assemblage A 713M3 and assemblage B 1279-M1 trophozoites followed the same protocol, except that the growth medium was supplemented with metronidazole gradually increasing the concentration to 10 μM. Amebae cultures: E. histolytica strain HM1:IMSS trophozoites were grown at 37° C. in TYI-S-33 medium supplemented with penicillin (100 U/mL) and streptomycin sulfate (100 μg/mL). Trophozoites were grown anaerobically in borosilicate tubes and subcultures were made 1-2 times a week. Trophozoites were detached for inoculation by chilling the cultures on ice for 20 minutes.
(§2) Trophozoite viability IC50determination
(§3) Giardia assays: 10 μL giardia trophozoites in growth medium were plated at a density of 10,000 cells/well in sterile 96-well black clear bottom assay plates. Fumagillin and fumagillol derivatives were 1:3 serially diluted from a 1 μM DMSO stock solution and then 100 μL/well were transferred in duplicate to the assay wells. Metronidazole (control) was 1:3 serially diluted in growth medium from a 100 μM stock solution in DMSO. The assay plates were placed in a BD GasPak™ EZ Container System (BD Diagnostics) to create an anaerobic growth environment. The sealed containers were incubated at 37° C. for 72 hr. Following incubation, 70 μL/well of the ATPLite reagent (PerkinElmer) was added to the assay plates for one-step lysis and ATP level detection. The luminescent signals of the assay plates were measured on an EnSpire 2300 plate reader (PerkinElmer). Concentration response titration points for each compound were fitted to a 4-parameters logistic nonlinear regression model using KaleidaGraph, yielding the IC50value and standard error (SE).

G. lamblia GS = experiment: as above; type: cell-based; details: Giardia duodenalis, 72 h, read-out: Cell viability values Mean IC50 (nM) G. lamblia GS
Procedure: as §1, §2, §3

E. histolytica HM1: IMSS = experiment: Trophozoite viability IC50 determination, Amebae assay (ATPLite); type: cell-based; details: Entamoeba histolytica, 72 h, read-out: Cell viability values Mean IC50 (nM) E. histolytica HM1: IMSS
Procedure: as §1, §2, §3
Amebae assays: The protocol is identical to that described above except that the trophozoites were plated at a density of 5000 cells/well because of their larger size.

Recombinant human MetAP2 = target: T1, Recombinant human MetAP2 (Homo sapiens, UniProt P50579); experiment: MetAP2 fluorescence assay; type: biochemical; details: recombinant human MetAP2, H-Met-Gly-Pro-AMC substrate
T1 construct: purchased Bio-Techne/R&D systems
T1 sequence (P50579 whole entry): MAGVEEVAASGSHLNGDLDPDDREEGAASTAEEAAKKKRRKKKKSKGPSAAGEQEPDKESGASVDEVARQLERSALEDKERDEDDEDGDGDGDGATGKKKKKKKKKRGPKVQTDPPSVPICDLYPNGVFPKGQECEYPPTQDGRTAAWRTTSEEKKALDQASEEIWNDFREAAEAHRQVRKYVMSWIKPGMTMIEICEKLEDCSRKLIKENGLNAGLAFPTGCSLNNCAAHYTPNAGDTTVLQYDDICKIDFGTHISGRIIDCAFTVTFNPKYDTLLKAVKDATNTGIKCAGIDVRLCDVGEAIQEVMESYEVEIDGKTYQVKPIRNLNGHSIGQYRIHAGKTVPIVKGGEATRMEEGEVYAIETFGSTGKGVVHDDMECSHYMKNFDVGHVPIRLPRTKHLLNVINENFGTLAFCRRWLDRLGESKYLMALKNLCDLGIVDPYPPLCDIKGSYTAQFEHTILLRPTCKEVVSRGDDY
Procedure: MetAP2 Fluorescence Assay
Recombinant human MetAP2 (Bio-Techne/R&D systems) was diluted to 10 μg/mL in the assay buffer (50 mM HEPES, 0.1 mM CoCl2, 100 mM NaCl, pH 7.5). The substrate, H-Met-Gly-Pro-AMC (Bio-Techne/R&D systems), was diluted to 500 μM with 2 μg/mL of the coupling enzyme, recombinant human dipeptidyl peptidase-4 (Bio-Techne/R&D systems), in assay buffer. 50 μL of 10 μg/mL recombinant human METAP2 were loaded into a flat-bottom black 96-well plate (Greiner Bio), and the reaction was initiated by adding 50 μL of the substrate/dipeptidyl peptidase-4 mixture. The reaction mixture was incubated at room temperature for 10 minutes, and the fluorescence was measured for 5 minutes at excitation and emission wavelengths of 380 nm and 460 nm, respectively, in kinetic mode. For IC50determination, 0.5 μL inhibitor solution was added to the reaction mixture. The reaction rates were used to calculate IC50with KaleidaGraph.

SMILES | body weight loss [1] | immune-compromised patients with reversible toxic effect on bone marrow (primarily Thrombocytopenia) [1] | spontaneous platelet count recovery after halting therapy [1] | IC50 (G. lamblia WB) | IC50 (G. lamblia GS) | IC50 (E. histolytica HM1: IMSS) | IC50 (Recombinant human MetAP2)
CO[C@@H]1[C@H](OC(=O)/C=C/C=C/C=C/C=C/C(=O)O)CC[C@]2(CO2)[C@H]1[C@@]1(C)O[C@@H]1CC=C(C)C [Fumagillin] | > 15% | 33% | 1-2 weeks |  |  |  | 
CO[C@@H]1[C@H](OC(=O)Nc2ccc(B(O)O)c(F)c2)CC[C@]2(CO2)[C@H]1[C@@]1(C)O[C@@H]1CC=C(C)C [No 65] |  |  |  | 101 to 1000 nM | < 10 nM | > 1000 nM | < 10 nM
CO[C@@H]1[C@H](OC(=O)N[C@@H](CC(C)C)B(O)O)CC[C@]2(CO2)[C@H]1[C@@]1(C)O[C@@H]1CC=C(C)C [No 67] |  |  |  | 101 to 1000 nM | 10.1 to 100 nM | 101 to 1000 nM | < 10 nM
CO[C@@H]1[C@H](OC(=O)N[C@H](CC(C)C)B(O)O)CC[C@]2(CO2)[C@H]1[C@@]1(C)O[C@@H]1CC=C(C)C [No 68] |  |  |  | > 1000 nM | 101 to 1000 nM | > 1000 nM | < 10 nM
CO[C@@H]1[C@H](OC(=O)N[C@@H](C)B(O)O)CC[C@]2(CO2)[C@H]1[C@@]1(C)O[C@@H]1CC=C(C)C [No 69] |  |  |  | > 1000 nM | 10.1 to 100 nM | > 1000 nM | < 10 nM
CO[C@@H]1[C@H](OC(=O)N[C@H](C)B(O)O)CC[C@]2(CO2)[C@H]1[C@@]1(C)O[C@@H]1CC=C(C)C [No 70] |  |  |  | 101 to 1000 nM | 10.1 to 100 nM | > 1000 nM | < 10 nM
